In US10080729B2, “Composition for use in the treatment of intervertebral misalignment” (STAYBLE THERAPEUTICS AB, priority 2015, dated 2018):

Assays:
pig = assay: Tolerability and injection site observation (Example 1); type: in vivo; details: two pigs
Procedure: Two pigs were anesthetized and placed on their right side. Access to the L4-5 intervertebral disc was obtained through a lateral incision between the lowest rib and the iliac crest on the left side of each pig. Thereafter, the L3-4 intervertebral disc was incised with a scalpel.
The composition was injected in a single step at a single occasion.
At harvest, the pigs were killed.
The injection site was observed by the naked eye. […] The segment of the vertebral column extending from the lumbar vertebra L2 to the sacral vertebra S1 was removed. The facet joints were removed, thus allowing full flexibility of the discs with no restraints from other structures.

[1] = tested on: intervertebral disc L1/2 to L3/4; assay: Disc height on post-mortem X-ray (Example 3); type: in vivo, pig; details: 120 or 240 mg/ml lactic acid + iohexol, 0.2 ml; both doses; 2, 28 and 84 days; FIG. 16
Description: (§1) Eleven pigs were anesthetized and placed on their right side. Through a lateral incision the discs to be injected were exposed. […] After 2, 28 or 84 days the pigs were killed and the lumbar spine was harvested. All musculature was removed as well as the facet joints and ligamentum flavum between the L1/2, L2/3 and L3/4 vertebrae. The following endpoints were used: • A. X-ray pictures were taken at the day of injection and at the harvest day to ascertain that the injection was correctly placed and to determine if the discs were radio-opaque after 2, 28 and 84 days. • B. The X-rays taken post-mortem were used to measure disc height. • C. The sectioned discs were photographed and the degree of fibrotisation was visually evaluated.

[2] = tested on: nucleus pulposus of the L3-4 intervertebral disc; assay: Dimension of the disc space after administration (Example 1); type: in vivo, pig; details: injected disc L 3-4; 0.2 mL of 1.34 mol/L lactic acid; seven days after injection; mean ± SD
Procedure: 110. performing a cross-section of the discs and measuring the length (anterio-posterior direction) and the width (bilateral direction) of the disc space. Two pigs were anesthetized and placed on their right side. Access to the L4-5 intervertebral disc was obtained through a lateral incision between the lowest rib and the iliac crest on the left side of each pig. Thereafter, the L3-4 intervertebral disc was incised with a scalpel. […] The composition was injected in a single step at a single occasion. The intervertebral discs (L2-3, L3-4, L4-5) were cross-sectioned and the length of the disc space (anterio-posterior direction) and the width (bilateral direction) of the disc space were measured by calipers. In FIGS. 5 and 6, an intervertebral disc is schematically shown in cross-section. The intervertebral disc comprises the annulus fibrosus 10, and a disc space defined by the annulus fibrosus and comprising the nucleus pulposus 11.

[3] = tested on: nucleus pulposus of the L3-4 intervertebral disc; assay: Flexion stiffness of the injected intervertebral disc (Example 1); type: in vivo, pig; details: injected disc L 3-4; 0.2 mL of 1.34 mol/L lactic acid into nucleus pulposus; seven days after injection; mean ± SD; two pigs
Procedure: Access to the L4-5 intervertebral disc was obtained through a lateral incision between the lowest rib and the iliac crest on the left side of each pig. Thereafter, the L3-4 intervertebral disc was incised with a scalpel. […] The composition was injected in a single step at a single occasion.

[4] = tested on: intervertebral disc L1/2 to L3/4; assay: Visual evaluation of fibrotisation of the nucleus space (Example 3); type: in vivo, pig
Description: as §1

CC(O)C(=O)O (stereo not drawn) [lactic acid]
Adverse reaction such as decreased mobility or vocalization (pig; 0.2 mL of 1.34 mol/L lactic acid intradiscal, period of seven days until harvest): no adverse reaction | Adverse reaction at the injection site (bleedings, inflammation or necrosis), naked eye (pig; at harvest seven days after injection): No adverse reaction at the injection site | Disc height, discs injected with lactic acid versus placebo (X-ray) [1]: no difference in height | Average antero-posterior length of the disc space [2]: 13.5 ± 1.3 mm | Average bilateral width of the disc space [2]: 4.0 ± 1.4 mm | Difference in distance between transverse processes before and upon full lateral flexion [3]: 0.3 ± 0.6 mm | Fibrotisation of the nucleus space ([4]; 84 days after injection, some discs, FIG. 17a): fibrosis was close to complete | Fibrotisation of the nucleus space ([4]; after 2 days, 120 or 240 mg/ml lactic acid, 0.2 ml, some discs): tendency to fibrotisation | Fibrotisation of the nucleus space ([4]; after 28 days, 120 or 240 mg/ml lactic acid, 0.2 ml): fibrotisation was evident
